Publication PMC3115046, “Analyzing Airway Inflammation with Chemical Biology: Dissection of Acidic Mammalian Chitinase Function with a Selective Drug-like Inhibitor” (Chemistry & Biology, 2011)

Key:
human AMCase (hAMCase) = target: T1, human AMCase (hAMCase) (Homo sapiens, UniProt Q9BZP6); experiment: Chitinase activity assay with fluorescent 4-MU substrate, hAMCase; type: biochemical
T1 construct: A fragment corresponding to hAMCase 22-398 (bp 64–1194) was ligated into the pPIC9 vector; made in house; host or cells: Pichia pastoris GS115
T1 sequence (Q9BZP6 22-398): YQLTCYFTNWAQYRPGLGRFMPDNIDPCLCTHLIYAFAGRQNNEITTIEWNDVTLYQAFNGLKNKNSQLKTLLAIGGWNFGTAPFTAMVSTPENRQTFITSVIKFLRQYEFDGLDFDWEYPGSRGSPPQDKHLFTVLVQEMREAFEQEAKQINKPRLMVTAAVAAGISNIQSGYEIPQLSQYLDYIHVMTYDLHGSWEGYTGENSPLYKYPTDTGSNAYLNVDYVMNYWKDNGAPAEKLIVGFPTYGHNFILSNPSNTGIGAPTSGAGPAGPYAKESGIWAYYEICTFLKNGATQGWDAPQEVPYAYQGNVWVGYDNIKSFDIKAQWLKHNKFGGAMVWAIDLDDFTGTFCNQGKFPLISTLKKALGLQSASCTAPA
Method: A fragment corresponding to hAMCase 22-398 (bp 64–1194) was ligated into the pPIC9 vector (Invitrogen) using the Xho I and Not I restriction sites. The enzyme was subsequently overexpressed as a secreted protein from the Pichia pastoris GS115 strain and purified using a combination of affinity chromatography and size-exclusion chromatography. Pure hAMCase was spin concentrated to 37 mg/ml in 25 mM HEPES (pH 6.8), 250 mM NaCl. The protein was crystallized at 30°C from 75% saturated NaCl, 0.1 M HEPES (pH 7.4) using the hanging drop method. Crystals grew to an approximate size of 200 × 100 × 50 μm. Crystals were cryoprotected in 50% saturated NaCl, 20% glycerol in 0.1 M HEPES (pH 7.4) and subsequently flash frozen in liquid nitrogen. […] Data for hAMCase were collected at ID14-EH1 at the European Synchrotron Radiation Facilities (ESRF) using a cryostream of cold nitrogen (110 K). […]
Chitinase activity of hAMCase, lung homogenates, or AMCase COS-7 cell supernatants (serum-free) were determined using 4-methylumbelliferyl-β-D-N,N′,N″-triacetylchitotrioside and 4-methylumbelliferyl-β-D-N,N′,N″-triacetylchitobioside, as described. […] Liberated 4-methlyumberlliferone was quantified using a microplate fluorometer (excitation 360 nm/emission 440 nm). Ki and IC50 values were determined in the presence of different concentrations of inhibitor. […]

[1] = system: inflammatory cell recruitment in bronchoalveolar lavage; experiment: Bronchoalveolar lavage cell counts, OVA allergic inflammation model; type: in vivo, BALB/c mice
Method: All experiments used female BALB/c mice, 6- to 8-weeks-old. Mice were kept in individually ventilated cages and all experiments were conducted under UK Home Office guidelines. Mice were sensitized (day 0) and boosted (day 14) i.p. with 20 μg OVA (Grade V, Sigma) adsorbed to 9% potassium alum. Mice were either challenged on day 28 and 30 with 50 μg OVA or PBS by the intratracheal route or were challenged with 1% OVA or PBS by aerosol for 30 min on day 28 to day 30. […] Necropsies were performed 24 hr after the final airway challenge. […] Total cell numbers were counted and cytospins prepared for differential cell counts, which were assessed by morphology following Diff Quick staining ([…]). BALF was centrifuged at 1200 × g and supernatant stored at -20°C for further analysis.

[2] = 5 mg/kg i.p., OVA-challenged mice

## Cn1cnc2c1c(=O)n(CCCn1c(=O)c3[nH]cnc3n(C)c1=O)c(=O)n2C [bisdionin F]
Human AMCase (hAMCase); 4-MU substrate, pH 5.2, 10 min 37°C, read-out: IC50 against hAMCase
  IC50: 920 ± 40 nM
Human AMCase (hAMCase); hAMCase vs hCHIT1
  selectivity for AMCase over CHIT1: 20 fold
[1]; 5 mg/kg i.p.
  increase in neutrophil cell number in BALF vs vehicle-treated OVA-challenged mice: 4 fold
[1]; [2]
  number of eosinophils in BALF: reduction
  number of lymphocytes in BALF: reduction
[1]; 5 mg/kg i.p., OVA-challenged mice, vs vehicle, p < 0.01
  total cell airway infiltrates (BALF): significantly reduced
[1]; 5 mg/kg i.p., PBS-challenged mice
  total cell numbers (BALF) in PBS-challenged animals: not altered
[1]; 1 and 5 mg/kg i.p.
  eosinophilia of OVA-challenged mice: reduced
[1]; 1 and 5 mg/kg i.p., OVA-challenged mice
  increase in neutrophil cell number in BALF: 2- to 4 fold
[1]; doses that decreased penH in allergic animals
  reduction of eosinophil recruitment: approximately 50%
